Measured values taken from the NIST ThermoML archive (doi:10.1016/j.jct.2014.06.004).

Tests used:
[1] = xn = mol fraction of the nth substance listed; conditions: 100 kPa, Liquid; for speed of sound: Frequency=3 MHz, Sing-around technique in a fixed-path interferometer; for mass density: Vibrating tube method
[2] = refractive index (Na D-line) (dimensionless); xn = mol fraction of the nth substance listed; conditions: 100 kPa, Liquid, Standard Abbe refractometry

CCCCCCC(=O)O [heptanoic acid] + CCC(=O)O
Conditions	mass density, [1] [kg/m3]	refractive index, [2]	speed of sound, [1] [m/s]
293.15 K, x1 = 0.0539	985.8	1.39	1176
293.15 K, x1 = 0.1023	979.3	1.3929	1185
293.15 K, x1 = 0.2037	967.5	1.3982	1202
293.15 K, x1 = 0.3021	957.8	1.4026	1217
293.15 K, x1 = 0.4007	949.6	1.4066	1231
293.15 K, x1 = 0.5015	942.3	1.4102	1244
293.15 K, x1 = 0.6051	935.9	1.4135	1257
293.15 K, x1 = 0.7009	930.7	1.4162	1267
293.15 K, x1 = 0.8016	925.8	1.4188	1277
293.15 K, x1 = 0.9002	921.5	1.4212	1287
293.15 K, x1 = 0.95	919.5	1.4223	1291
293.15 K, x1 = 1	917.7	1.4234	1295
298.15 K, x1 = 0.0539	980.5	1.388	1158
298.15 K, x1 = 0.1023	974.2	1.3909	1166
298.15 K, x1 = 0.2037	962.5	1.3961	1184
298.15 K, x1 = 0.3021	953	1.4006	1199
298.15 K, x1 = 0.4007	944.9	1.4045	1213
298.15 K, x1 = 0.5015	937.7	1.4081	1226
298.15 K, x1 = 0.6051	931.1	1.4114	1239
298.15 K, x1 = 0.7009	926.3	1.4142	1249
298.15 K, x1 = 0.8016	921.4	1.4169	1260
298.15 K, x1 = 0.9002	917.2	1.4192	1269
298.15 K, x1 = 0.95	915.3	1.4203	1273
298.15 K, x1 = 1	913.5	1.4214	1278
303.15 K, x1 = 0.0539	975.2	1.3859	1139
303.15 K, x1 = 0.1023	969	1.3888	1148
303.15 K, x1 = 0.2037	957.5	1.394	1165
303.15 K, x1 = 0.3021	948.1	1.3985	1180
303.15 K, x1 = 0.4007	940.2	1.4024	1195
303.15 K, x1 = 0.5015	933.2	1.406	1208
303.15 K, x1 = 0.6051	926.9	1.4094	1220
303.15 K, x1 = 0.7009	921.9	1.4121	1231
303.15 K, x1 = 0.8016	917.1	1.4148	1242
303.15 K, x1 = 0.9002	913	1.4171	1251
303.15 K, x1 = 0.95	911.1	1.4183	1256
303.15 K, x1 = 1	909.3	1.4194	1260
308.15 K, x1 = 0.0539	970	1.3838	1120
308.15 K, x1 = 0.1023	963.8	1.3866	1129
308.15 K, x1 = 0.2037	952.5	1.3919	1146
308.15 K, x1 = 0.3021	943.3	1.3963	1162
308.15 K, x1 = 0.4007	935.5	1.4003	1176
308.15 K, x1 = 0.5015	928.6	1.4039	1190
308.15 K, x1 = 0.6051	922.4	1.4073	1202
308.15 K, x1 = 0.7009	917.5	1.4101	1213
308.15 K, x1 = 0.8016	912.8	1.4127	1224
308.15 K, x1 = 0.9002	908.8	1.4151	1233
308.15 K, x1 = 0.95	906.9	1.4162	1238
308.15 K, x1 = 1	905.1	1.4173	1242
313.15 K, x1 = 0.0539	964.7	1.3816	1101
313.15 K, x1 = 0.1023	958.6	1.3845	1110
313.15 K, x1 = 0.2037	947.5	1.3897	1128
313.15 K, x1 = 0.3021	938.4	1.3942	1144
313.15 K, x1 = 0.4007	930.8	1.3982	1158
313.15 K, x1 = 0.5015	924	1.4018	1172
313.15 K, x1 = 0.6051	918	1.4052	1185
313.15 K, x1 = 0.7009	913.1	1.408	1196
313.15 K, x1 = 0.8016	908.5	1.4107	1206
313.15 K, x1 = 0.9002	904.5	1.4131	1216
313.15 K, x1 = 0.95	902.7	1.4142	1220
313.15 K, x1 = 1	900.9	1.4153	1225
